Data taken from patent US20230201262A1, “MYELOMA-SPECIFIC IMMUNITY REQUIRES THE DIFFERENTIATION OF STEM-LIKE MEMORY T CELLS IN THE BONE MARROW” (Fred Hutchinson Cancer Center, priority 2021, published 2023).
Entries after “also recorded” stand apart in the source; their conditions may differ.

Legend:
Vk*MYC myeloma = type: in vivo
From the text: To achieve this, a system of allogeneic BMT was developed where C57B⅙ recipients are transplanted with BM and T cell grafts from minor MHC (major histocompatibility complex)-mismatched C3H.SW donors (alloBMT) or syngeneic C57B⅙ donors (synBMT). A green fluorescent protein (GFP)-expressing MLL-AF9-driven leukemia that allows for monitoring of tumor cells in peripheral blood and Vk*MYC myeloma that secretes immunoglobulin G (IgG), which can be monitored by serum protein electrophoresis as an M-band (albumin/gamma ratio) that is a hallmark of clinical disease, were utilized.
(§1) Stem cell transplantation: Recipient mice were intravenously injected with Vk12653, which originated from Vk*MYC transgenic mice, 2 weeks before BMT (1 × 10^6 CD138^+CD19neg cells; MM-bearing mice) or with an MLL-AF9-driven AML (MLL-AF9; 0.1 × 10^6 GFP^+) or BCR-ABL-NUP98-HOXA9 (1.0 × 10^6 GFP^+) on D0 (AML-bearing mice). Recipients were transplanted with BM and T cell grafts (doses detailed in the figure legends) administered via tail vein injection the day after lethal irradiation (1000 cGy for C57B⅙ and 1100 cGy for B62DF1, 137Cs source). Every 2 weeks, serum samples were collected from MMbearing recipients, and M-band was quantified using a Sebia Hydrasys serum protein electrophoresis system ([…] 2 Scan). Leukemia cell number in blood was calculated weekly using flow cytometry to quantify GFP^+ cells in blood. Recipients were monitored daily, up to 120 days after BMT, and euthanized when hindlimb paralysis occurred or clinical scores reached ≥6. In competing risk analyses, deaths were attributed to myeloma if the M-band was above 0.28, a defined relapse threshold. In the leukemia models, leukemic death was defined by a white blood cell count above 50 × 10^6/ml or a GFP^+ leukemia frequency above 50% in blood or BM. For some experiments, mice were treated with 100 µg of anti-TIGIT monoclonal antibody (mAb; 4B1, Bristol Myers Squibb) or mouse IgG2a (anti-KLH) twice a week for 4 weeks from D+14 postalloBMT. For other experiments, mice were treated with 100 µg of Fc-dead anti-TIGIT mAb (D265A, Bristol Myers Squibb) or mouse IgG1 (anti-KLH.1) twice a week for 6 weeks from D+21 postalloBMT. Cyclophosphamide (Fisher Scientific; 99.5%, MP Biomedicals) was intraperitoneally administered at 50 mg/kg on D+3 and D+4 after alloBMT (PT-Cy). […] DR-18 was supplied by Simcha Therapeutics (New Haven, CT).
(§2) Cell preparation for flow cytometry: Recipient mice were euthanized 2 to 8 weeks after transplant, and cells from BM or blood were harvested. For BM aspirates, mice were anesthetized and treated with a local analgesic (0.5% lidocaine) followed by injection of 30 µl of phosphate-buffered saline (PBS) into the femur to allow up to 10 µl of marrow to be aspirated for fluorescence- activated cell sorting (FACS) analysis. For surface marker phenotyping, isolated cells were incubated with Fc-block before staining with fluorescently tagged antibodies (listed in Table 1), on ice for 30 min. For intracellular staining, cells were surface labeled, fixed, and permeabilized (eBioscience, Foxp3 Transcription Factor Staining Buffer Kit) before intracellular staining at room temperature for 60 min. To measure cytokine production, cells were stimulated for 4 hours at 37° C. with PMA (500 ng/ml) and ionomycin (50 ng/ml; Sigma-Aldrich) with brefeldin A (BioLegend). All samples were acquired on a BD LSR Fortessa (BD Biosciences) or BD FACSymphony A3 (BD Biosciences) and analyzed using FlowJo software (v10). t-SNE analysis was performed using the FlowJo plugin with default settings on a concatenated sample with 3000 CD8 T cells per mouse. FlowSOM analysis was performed with 3000 to 4000 CD8 or CD4 T cells per mouse concatenated after downsampling.
Statistical analysis: Data are presented as means ± SEM, and P < 0.05 was considered significant. Survival curves were plotted using Kaplan-Meier estimates and compared by log-rank (Mantel-Cox) test.

T cells in the BM = tested on: T cells in the BM
Method: It was next investigated whether it was possible to eliminate highly activated, alloreactive T cells to preserve T cell subsets that could be safely harnessed to improve GVT responses in the BM after alloBMT. […] T cell phenotypes in the BM were first assessed 14 days after transplantation in MM-free mice to generate a dataset that could be broadly interpreted independent of specific tumor induced phenotypes. Single-cell sequencing was performed on sorted T cells from BM with the 10x Genomics Multiome platform to measure concurrent changes in gene expression (RNA sequencing) and chromatin accessibility (ATAC (assay for transposase-accessible chromatin) sequencing).
as §2
Single-cell RNA/ATAC sequencing: Naive C57B⅙ mice were transplanted with C3H.SW grafts and were untreated (alloBMT) or treated with PT-Cy (50 mg/kg) on D+3 and D+4 (PT-Cy). BM was harvested from femurs (four mice pooled per group) at D+14 after alloBMT, and T cells were sort-purified (CD90.2^+CD4^+ and CD90.2^+CD8^+) before nuclei preparation according to the 10x Genomics Multiome protocol. Nuclei (also referred to as cells herein) were captured and libraries were generated according to the manufacturer’s specifications. Libraries were sequenced using Illumina NovaSeq 6000 targeting a depth of 25,000 reads per cell per library.
Single-cell RNA/ATAC analysis: Reads were demultiplexed and processed using cellranger-arc v1.0.1 aligning reads to GENCODE vM23/Ensembl98. Peaks were called from each sample’s fragment file (cellranger output) using MACS2 using the parameters “--nomodel --extsize 200 --shift -100.” Quantification of reads in MACS2 peaks were calculated and integrated with cellranger RNA output using Signac. Cells meeting the following criteria (calculated using Signac) were retained for downstream analysis: percent mitochondrial RNA reads <10%; 3 > log10(ATAC counts) < 4.5; 3 > log10(RNA/UMI counts) < 4.5; fraction of reads in peaks >40%; transcription start site (TSS) percentile >75%. RNA/unique molecular identifier (UMI) counts were subject to a variance-stabilized normalization procedure using Seurat’s “glmGamPoi” function before dimensionality reduction using principal components analysis (PCA).

[1] = tested on: BCR-ABL-NUP98-HOXA9 leukemia
Method: Recipients were untreated (haploBMT) or administered PT-Cy (50 mg/kg) on D+3 and D+4 (PT-Cy) with or without decoy-resistant IL-18 (PT-Cy + DR-18; 8 µg twice weekly from D+7 to week 5) or CD137 agonist antibody (PT-Cy + αCD137; 100 µg twice weekly from D+7 to week 5).
It was next sought to explore the combination of agonist immunotherapy with PT-Cy in a model of haploidentical transplantation (haploBMT), a setting where PT-Cy is a clinical standard of care. In this model, there is a major genetic mismatch between the recipient and the donor whereby lethal GVHD occurs in the absence of any immunosuppressive interventions.
To explore the mechanisms of DR-18-driven GVL in a haploBMT setting, donor cells from a triple reporter mouse (FoxP3-RFP × IL-10-GFP × IFN-γ-YFP) were used to measure in vivo cytokine production without restimulation. Phenotyping was performed in mice with low leukemia burden to minimize the effect of tumor cells on T cell number in the BM.
as §1

[2] = 50 mg/kg D+3 and D+4, vs untreated recipients
[3] = 50 mg/kg D+3 and D+4, D+14, multiome sequencing, vs untreated alloBMT
[4] = 50 mg/kg D+3 and D+4, vs untreated haploBMT
[5] = 21 days after transplantation, vs untreated haploBMT
[6] = 21 days, PT-Cy vs untreated haploBMT

For `O=P1(N(CCCl)CCCl)NCCCO1` (stereo not shown) [PT-Cy, cyclophosphamide], the overall survival (Vk*MYC myeloma; 50 mg/kg D+3 and D+4, vs untreated alloBMT) was “did not significantly reduce overall survival”, the “myeloma burden (M-band) at 4 weeks after alloBMT” value (Vk*MYC myeloma; [2]) was “early myeloma cytoreduction with reduced M-bands” and the “myeloma progression (M-band) 8 weeks after alloBMT” value (Vk*MYC myeloma; [2]) was “subsequent increase in myeloma progression”. For the same compound, the “CD8+ T cell phenotype in BM, MM-bearing recipients” value (Vk*MYC myeloma; 7 weeks after transplant) was “most CD8^+ T cells were DNAM-1-TIGIT^+ with high expression of TOX and TIM-3”, the “total numbers of CD4+ and CD8+ T cells in BM” value (Vk*MYC myeloma; 7 weeks after transplant) was “reduction in total numbers of CD4^+ and CD8^+ T cells” and the “total T cell numbers (CD8 and CD4) in BM” value (Vk*MYC myeloma; D+14 (MM-free) and D+21 (MM-bearing) after alloBMT) was “concurrently reduced; also recorded: reduces the total number of CD8 and CD4 T cells”. The “chromatin accessibility (gene activity scores) of Il18r1, Il2ra, Il7r in CD8+ and CD4+ T cells” value (T cells in the BM; 50 mg/kg D+3 and D+4, D+14, ATAC) was “increased gene activity scores”, the “gene signature expression in BM CD8+ T cells” value (T cells in the BM; [3]) was “higher expression of stem-like memory gene signatures” and the “gene signature in BM CD4+ T cells” value (T cells in the BM; [3]) was “largely enriched for a TSCM signature”. For the same compound, the “CD8+ T cell phenotype in BM, MM-free recipients” value (T cells in the BM; 7 weeks after transplant) was “most CD8^+ T cells were DNAM-1^+TIGIT^- and did not express TOX or TIM-3”, the “CD8+ central memory and terminal effector T cells, MM-free recipients” value (T cells in the BM; 7 weeks after transplant) was “increase in CD8^+ central memory (TCM; CD44^+CD62L^+) and a decrease in terminal effector (TEFF; CD44^-CD62L^-) T cells” and the “frequency of alloreactive, exhausted T cells in the BM” value (T cells in the BM; D+14) was “reduced the frequency of alloreactive, exhausted T cells”. For the same compound, the “granzyme B production by CD8+ T cells” value (T cells in the BM; D+14, RNA and protein expression) was “did not abrogate granzyme B production”, the “CD4+ T cell exhaustion signature in FoxP3- conventional CD4+ T cells” value (T cells in the BM; D+14, flow cytometry) was “largely indistinguishable from synBMT recipients” and the “DNAM-1, TIGIT, PD-1 and TOX expression on BM CD8+ T cells” value (T cells in the BM; D+14, flow cytometry, vs alloBMT without PT-Cy) was “significantly increased DNAM-1 and reduced TIGIT, PD-1, and TOX expression”. The “incidence of lethal GVHD” value [1, 4] was “reduced the incidence of lethal GVHD”, the relapse-related mortality [1, 4] was “increased relapse-related mortality” and the “CD8+ T cell numbers in the BM” value [1, 5] was “reduced”. For the same compound, the “NK cells in the BM” value [1, 5] was “increased”, the “CD4+ IFN-γ production” value [1, 6] was “unaffected” and the “frequency of IFN-γ+ CD8+ T cells” value [1, 6] was “minimally decreased”. For the same compound, the overall survival ([1]; PT-Cy vs untreated haploBMT) was “no difference in overall survival”.
